Converted amounts (≈) assume the structure as drawn.
Assays:
[1] = cited from earlier work
[2] = ref DrugBank database, DB01229 and DB08889; cited from earlier work
[3] = Water solubility measured in the current study; format: physicochemical
[4] = Saturation solubility in 50% FBS/PBS; format: physicochemical

With `CC(=O)O[C@H]1C(=O)[C@@]2(C)[C@H]([C@H](OC(=O)c3ccccc3)[C@]3(O)C[C@H](OC(=O)[C@H](O)[C@@H](NC(=O)c4ccccc4)c4ccccc4)C(C)=C1C3(C)C)[C@]1(OC(C)=O)CO[C@@H]1C[C@@H]2O` [PTX, paclitaxel] as the compound, how does the plasma protein binding [1] read?
The plasma protein binding was 88-98%.

With `CC(C)C[C@H](NC(=O)[C@H](CCc1ccccc1)NC(=O)CN1CCOCC1)C(=O)N[C@@H](Cc1ccccc1)C(=O)N[C@@H](CC(C)C)C(=O)[C@@]1(C)CO1` [CFZ, carfilzomib] as the compound, how does the plasma protein binding [1] read?
The plasma protein binding was 98%.

What about the “water solubility as reported in DrugBank” value [2] of the same compound?
The value was 4.8 µg/mL (≈ 6.67 µM).

What about the solubility at 24 h [3] of the same compound?
The solubility at 24 h was 1.3 ± 0.2 µg/mL (≈ 1.81 µM).

And the solubility at 24 h [4]?
The solubility at 24 h was 9.3 ± 0.2 µg/mL (≈ 12.9 µM).

Reference: article PMC7096246 (Journal of pharmaceutical sciences, 2020)
